The text below walks through data of publication PMC6220877, “Modified Peptide Inhibitors of the Keap1–Nrf2 Protein–Protein Interaction Incorporating Unnatural Amino Acids” (Chembiochem, 2018).

Several values for one entry are separate records, joined by “and”; a condition that tells them apart may be missing. Identical values can stand only once. Marks after values point to notes of the source that are not given here. Where a SMILES comes first, the peptide text is derived from it. [ ]: non-standard residue; d: D form. The star is where a group is joined. 2Thi = N[C@@H](Cc1cccs1)C(=O)O; Cha = N[C@@H](CC1CCCCC1)C(=O)O; X1 = CC(C)C[C@H](N*)c1nnn[nH]1; Tle = CC(C)(C)[C@H](N)C(=O)O; Pip = O=C(O)[C@@H]1CCCCN1; Thz = O=C(O)[C@@H]1CSCN1; NHIsopentyl = CC(C)CCN*; NHBn = c1ccc(CN*)cc1

Assay type in all cases: binding
The target in test [1] is T1, Keap1 Kelch domain (Homo sapiens, UniProt Q14145).
T1 construct: made in house; host or cells: E. coli BL21 CodonPlus
The experiment in a line: Fluorescence polarisation (FP) competition assay. Conditions: for IC50: FP assay, Keap1 Kelch domain; for Ki: estimated from FP IC50 by the method described by Kenakin (ref 14), read-out: FP calcd Ki; for Percentage inhibition in FP assay: 100 μM concentration of inhibitor.

For the next test, the target named is T2, Keap1 Kelch protein (Homo sapiens, UniProt Q14145).
T2 construct: made in house; host or cells: E. coli BL21 CodonPlus
The experiment in a line: Differential scanning fluorimetry (DSF) thermal shift screen. Conditions: 10% DMSO, DPBS pH 7.4, 30 min at RT, 25-95 °C at 1 °C/min, triplicate, Keap1 Kelch Tm 47.0±0.1 °C; for ΔTm at 10 µM: pH 7.4, 10 μM peptide; for DSF ΔTm: 10 μM peptide.

Test [2] concerns the target T1, Keap1 Kelch domain. The experiment in a line: Isothermal titration calorimetry (ITC). The settings on record: 25 °C, 50 μM protein, 500 μM peptide, 25 mM HEPES pH 7.4, 200 mM NaCl, 5% DMSO, mean of n≥2. (In general: In ITC the heat of successive injections is recorded.)
Protocol: Isothermal titration calorimetry experiments
The protein was initially dialysed overnight against buffer containing 25 mM HEPES, pH 7.4
and 200 mM NaCl. The protein was diluted to a concentration of 50 μM prior to ITC. Inhibitors
were diluted to an appropriate concentration in dialysis buffer so that the final solution
contained no more than 5% DMSO. To maintain a similar buffer composition for titrations, 5%
DMSO was added to the protein solution. All peptides in this study were used at a
concentration of 500 μM. There were no detectable solubility issues at these concentrations
of the peptides in the dialysis buffer. ITC experiments were performed with a MicroCal PEAQ-
ITC instrument (Malvern Instruments, UK).
speed of around 750 rpm. In total 30 injections were performed for one protein inhibitor
experiment with the first injection of 0.3 μL followed by 29 injections of 1.3 μL and a gap of
120 s between each injection. Data analyses were performed after subtraction of the heats of
dilution for each experiment. The thermodynamic parameters N (stoichiometry), Kd
(dissociation constant/binding affinity), ∆S (entropy change) and ∆H (enthalpy change) were
obtained by using the single-site-binding model of the PEAQ-ITC analysis software (Malvern
Instruments, UK). For each experiment, at least two titrations were performed. Titration data
were analysed independently, and the obtained values were averaged.

T1 sequence (Q14145 321-609 limits assumed): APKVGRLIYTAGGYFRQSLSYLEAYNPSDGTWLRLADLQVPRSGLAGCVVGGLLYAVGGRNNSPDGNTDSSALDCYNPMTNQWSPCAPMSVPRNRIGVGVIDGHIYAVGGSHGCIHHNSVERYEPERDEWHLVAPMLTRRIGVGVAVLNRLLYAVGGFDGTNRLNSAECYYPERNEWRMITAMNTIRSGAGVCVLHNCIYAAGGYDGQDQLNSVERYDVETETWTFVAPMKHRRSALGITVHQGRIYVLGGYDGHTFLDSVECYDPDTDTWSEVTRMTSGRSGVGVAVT
T2 sequence (Q14145 321-609 limits assumed): as above
Protocol for Keap1 Kelch protein: DPBS at pH 7.4 was added to the wells of a MicroAmp® Optical 96-well reaction plate
containing the peptide inhibitor (10 µM, 10% final DMSO concentration, 40 µL final volume).
The plate was sealed using an optical adhesive cover and covered with aluminium foil to
protect the dye from light. The plate was then transferred to a plate centrifuge and spun down
briefly (200 g, 1 min, RT) to remove any bubbles and collect the solution at the bottom of the
wells. Following a 30 min incubation at RT, the plate was placed into a 7500 Real time PCR
machine and subjected to a standard protein melting protocol8 using the 7500 Software
1°C/min. All measurements were run in triplicate. The raw data were exported to MS Excel
and analysis was performed using a custom script provided by the Structural Genomics
Consortium Oxford.[8] The temperature range over which the protein unfolding occurred was
selected and the maximum and minimum (at temperatures below the maximum intensity)
fluorescence intensities within this range were determined. The processed data were fitted to
the Boltzmann equation by linear regression analysis using the Origin Pro software.

In general, IC50 refers to the point on the concentration scale where inhibition reaches its midpoint. The low end stands for higher potency, the high end for lower potency. For orientation: Ki means the equilibrium dissociation constant of an inhibitor or competing ligand from its target. Usually ΔTm stands for the change in melting temperature against a reference sample. Regarding `CC(=O)N[C@@H](CC(=O)O)C(=O)N1CCC[C@H]1C(=O)N[C@@H](CCC(=O)O)C(=O)N[C@H](C(=O)NCC(=O)N[C@@H](CCC(=O)O)C(=O)N[C@@H](CC(C)C)c1nnn[nH]1)[C@@H](C)O` [compound 8, Ac‐Asp‐Pro‐Glu‐Thr‐Gly‐Glu‐Leu‐TET] (Ac-DPETGE-X1), on Keap1 Kelch domain [1], the IC50 came out at 374 ± 31 nM and the Ki was 157 nM. The ΔTm at 10 µM at Keap1 Kelch protein was 6.2 ± 0.3 °C.
As to “Ac‐Asp‐Pro‐Glu‐Bap‐Gly‐Glu‐Leu‐OH [compound 13]”, on Keap1 Kelch domain [1], the “Percentage inhibition in FP assay” value is 27 %^[c]. Moreover, the “DSF ΔTm” value on Keap1 Kelch protein is “≈ 0.5 °C and 0.5±0.1 °C”.
Consider `CC(=O)N[C@@H](CC(=O)O)C(=O)N1CCCC[C@H]1C(=O)N[C@@H](CCC(=O)O)C(=O)N[C@H](C(=O)NCC(=O)N[C@@H](CCC(=O)O)C(=O)N[C@@H](CC(C)C)C(=O)O)[C@@H](C)O` [compound 16, Ac‐Asp‐Pip‐Glu‐Thr‐Gly‐Glu‐Leu‐OH] (Ac-D[Pip]ETGEL-OH), for which, on Keap1 Kelch domain [1], the IC50 turned out to be 1060 ± 280 nM and the Ki is 447 nM. Besides, the ΔTm at 10 µM on Keap1 Kelch protein is ~2 °C.
For “Ac-DPENGEL-OH [compound 14, Ac‐Asp‐Pro‐Glu‐Asn‐Gly‐Glu‐Leu‐OH]”, on Keap1 Kelch domain [1], the IC50 stood at 3040 ± 310 nM and the Ki was 1280 nM. Further, on Keap1 Kelch protein, the ΔTm at 10 µM was ~0.5 °C.
Usually Kd stands for the equilibrium constant for the complex coming apart. Low values mean tighter binding, high ones weaker binding. `CC(=O)N[C@@H](CC(=O)O)C(=O)N1CCC[C@H]1C(=O)N[C@@H](CCC(=O)O)C(=O)N[C@H](C(=O)NCC(=O)N[C@@H](CCC(=O)O)C(=O)N[C@@H](CC1CCCCC1)C(=O)O)[C@@H](C)O` [compound 11, Ac‐Asp‐Pro‐Glu‐Thr‐Gly‐Glu‐Cha‐OH] (Ac-DPETGE[Cha]-OH): at Keap1 Kelch domain [1], the IC50 was 85 ± 14 nM and the Ki is 36 nM. At Keap1 Kelch domain [2], the “ITC TΔS” value is -0.29 ± 0.001 kcal/mol, the “ITC ΔG” value was -9.57 ± 0.21 kcal/mol, the “ITC ΔH” value was -9.83 ± 0.22 kcal/mol and the Kd came to 75 ± 6 nM. At Keap1 Kelch protein, the ΔTm at 10 µM came to 5.8 ± 0.9 °C.
On to `CC(=O)N[C@@H](CC(=O)O)C(=O)N1CCC[C@H]1C(=O)N[C@@H](CCC(=O)O)C(=O)N[C@H](C(=O)NCC(=O)N[C@@H](CCC(=O)O)C(=O)N[C@@H](CC(C)C)C(=O)NCc1ccccc1)[C@@H](C)O` [compound 7, Ac‐Asp‐Pro‐Glu‐Thr‐Gly‐Glu‐Leu‐NH‐Bn] (Ac-DPETGEL-NHBn), for which, on Keap1 Kelch domain [1], the IC50 worked out at 888 ± 28 nM and the Ki is 373 nM. For the same compound, the ΔTm at 10 µM on Keap1 Kelch protein is ~2 °C.
With `CC(=O)N[C@@H](CC(=O)O)C(=O)N1CSC[C@H]1C(=O)N[C@@H](CCC(=O)O)C(=O)N[C@H](C(=O)NCC(=O)N[C@@H](CCC(=O)O)C(=O)N[C@@H](CC(C)C)C(=O)O)[C@@H](C)O` [compound 15, Ac‐Asp‐Thp‐Glu‐Thr‐Gly‐Glu‐Leu‐OH] (Ac-D[Thz]ETGEL-OH), at Keap1 Kelch domain [1], the IC50 worked out at 89 ± 6 nM and the inhibition constant (Ki) was 37 nM. Besides, on Keap1 Kelch domain [2], the “ITC TΔS” value is -3.84 ± 0.31 kcal/mol, the “ITC ΔG” value is -8.95 ± 0.17 kcal/mol, the “ITC ΔH” value was -12.83 ± 0.33 kcal/mol and binding was characterised by a dissociation constant (Kd) of 310 ± 10 nM. In addition, the ΔTm at 10 µM at Keap1 Kelch protein is 8.3 ± 0.3 °C.
`CC(=O)N[C@@H](CC(=O)O)C(=O)N1CCC[C@H]1C(=O)N[C@@H](CCC(=O)O)C(=O)N[C@H](C(=O)NCC(=O)N[C@@H](CCC(=O)O)C(=O)N[C@@H](CC(C)C)C(=O)NCCC(C)C)[C@@H](C)O` [compound 6, Ac‐Asp‐Pro‐Glu‐Thr‐Gly‐Glu‐Leu‐NH‐isopentyl] (Ac-DPETGEL-NHIsopentyl): on Keap1 Kelch domain [1], the IC50 stood at 745 ± 126 nM and the Ki was 313 nM. The ΔTm at 10 µM on Keap1 Kelch protein was ~2 °C.
Turning to `CC(=O)N[C@@H](CC(=O)O)C(=O)N1CCC[C@H]1C(=O)N[C@@H](CCC(=O)O)C(=O)N[C@H](C(=O)NCC(=O)N[C@@H](CCC(=O)O)C(=O)N[C@H](C(=O)O)C(C)(C)C)[C@@H](C)O` [compound 9, Ac‐Asp‐Pro‐Glu‐Thr‐Gly‐Glu‐Tle‐OH] (Ac-DPETGE[Tle]-OH), on Keap1 Kelch domain [1], the IC50 was found to be 235 ± 16 nM and the Ki is 99 nM. In addition, on Keap1 Kelch domain [2], the “ITC TΔS” value was -1.69 ± 0.34 kcal/mol, the “ITC ΔG” value is -8.59 ± 0.12 kcal/mol, the “ITC ΔH” value was -10.25 ± 0.21 kcal/mol and binding was put at a Kd of 580 ± 90 nM. Also, the ΔTm at 10 µM on Keap1 Kelch protein came to 5.8 ± 0.6 °C.
In the case of `CC(=O)N[C@@H](CC(=O)O)C(=O)N1CCC[C@H]1C(=O)N[C@@H](CCC(=O)O)C(=O)N[C@H](C(=O)NCC(=O)N[C@@H](CCC(=O)O)C(=O)N[C@@H](Cc1cccs1)C(=O)O)[C@@H](C)O` [compound 10, Ac‐Asp‐Pro‐Glu‐Thr‐Gly‐Glu‐Thi‐OH] (Ac-DPETGE[2Thi]-OH), on Keap1 Kelch domain [1], the IC50 was found to be 578 ± 25 nM and the Ki is 243 nM. For the same compound, the ΔTm at 10 µM on Keap1 Kelch protein is 5.3 ± 0.2 °C.
For “Ac‐Asp‐Pro‐Glu‐hPhe‐Gly‐Glu‐Leu‐OH [compound 12]”, on Keap1 Kelch domain [1], the “Percentage inhibition in FP assay” value came to 20 %^[c]. In addition, the “DSF ΔTm” value on Keap1 Kelch protein was “≈ 0.5 °C and 0.8±0.2 °C”.
